Results reported in patent US5583000A, “Protease-binding compounds and methods of use” (priority 1993, dated 1996).
In brackets after ≈: the same amount, converted by molar mass. Several values for one entry are separate records, joined by “and”; a condition that tells them apart may be missing. Equal entries are not always repeated. Where two headings read alike, the source gives them in different places. Square brackets hold non-standard residues; d marks the D form. Ends that are not written are not given here. Peptide text beside a SMILES is read from it. * marks the point of attachment. Sta = CC(C)C[C@H](N)[C@@H](O)CC(=O)O; Isovaleryl = CC(C)CC(=O)*

Columns and labels:
[1] = MTT cell viability assay (Tables 5 and 7); conditions: african green monkey, cos-7 cells
Description: (§1) MTT cell viability assay. This is a quantitative colorimetric assay for mammalian cell survival and proliferation. Cells were seeded in 96 well plates and grown to near 50% confluency. A serial dilution (1 to 500 μM) of each compound was then prepared in culture media and added (250 μL/well) in duplicate. All culture media was adjusted to a final concentration of 1.0% DMSO (volume basis). The cells were allowed to grow for either 4 hours or 24 hours. The culture media were then removed, and the cells were washed with phosphate buffered saline (PBS) before 50 μL of MTT solution (1 mg/mL in PBS) was added. After incubating for 4 hours at 37° C., the reaction was quenched by adding 160 μL of acidified isopropanol and mixing to dissolve purple crystals. The absorbance was determined within 30 minutes at 570 nm on an ELISA plate reader.
(§2) The cytotoxic effect of the inhibitors was determined using the MTT stain viability assay.

in vitro [2] = conditions: african green monkey, cos-7 cells
Description: as §1, §2

HIV = assay: HeLa/T4 infectivity assay with replication-defective virions from transfected COS-7 cells; type: cell-based; conditions: for colony reduction (summary in words): Table 5 concentrations
HIV-1 protease [3] = molecular target: T1, HIV-1 protease (Human immunodeficiency virus type 1 group M subtype B, UniProt P03369); type: cell-based; design: fused to amino acids 5 (Asp) to 179 (Trp) of the pol region; human superoxide dismutase (hSOD, 153 residues) (N); Phe-Arg-Glu are pol residues) (N); additional Pro residue of pol (C); expressed in transfected cells; host or cells: E. coli strain D1210 harboring plasmid pSOD/PR179
p24 = p24 core antigen ELISA of virus from treated COS-7 cells
Description: Drug treatment. The compounds were added 48 hours post-transfection, at the peak of virus production, and the incubation was restricted to a 4-hour period. […] Culture media were adjusted to the desired concentration of these compounds just prior to the addition of the media to cells. To avoid precipitation, the compounds were aliquoted first to a tube in sufficient DMSO to yield a 1.0% final concentration, and subsequently the culture medium was added quickly and vortexed. The culture medium was collected after 4 hours of incubation of the cells with each of the compounds. This culture supernatant is the source of virus for measurement of infectivity as well as levels of p24 and other capsid proteins.
p24 Core antigen ELISA assay. An ELISA kit purchased from NEN/Dupont was used to determine the amount of p24 present in culture media or virus preparations. This capture assay uses a monoclonal antibody that preferentially binds p24 while it reacts with larger capsid protein precursors to a very limited extent. The assay was carded out using the manufacturer's indications. Samples were pre-treated with 1% Triton to inactivate the virus.
Virus isolation by ultracentrifugation. The culture medium was filtered through a 0.45 μm syringe filter and was then centrifuged to remove any precipitate. The medium was then spun through a cushion of 20% sucrose in PBS in an SW41 Beckman rotor for 1.5 hours at 35K and 4° C. The pelleted material was collected.
Following incubation of virus-producing cells with various concentrations of the test compounds, the virus particles were isolated by ultracentrifugation. These particles were disrupted using Triton X-100 and the amount of p24 capsid protein was quantitated by ELISA.

in vitro [4] = assay: in vitro
Description: Cytotoxicity. The MTT assay was performed as follows:
The cells were seeded in 96-well plates and grown overnight to near 50% confluency. A serial dilution (1 to 500 μM) of each compound in culture media was prepared and 250 μL/well was added in duplicate. The cells were allowed to grow for various periods of time (6, 24, 48 hours) and any precipitation of compounds in the wells was noted. The assay was performed by removing 200 μL of the culture media and adding 25 μL of MTT solution (2 mg/mL in phosphate buffered saline (PBS)). This was incubated for 4 hours at 37° C. and live cells began to turn purple while the solution remained yellow. To quench the reaction and solubilize the reaction product, 160 μL of acidified isopropanol (4 mL 1N HCl for 96 mL alcohol) were added and the resulting mixture was mixed vigorously to dissolve purple crystals. Absorbance was determined at 550-570 nm on an ELISA plate reader within 0.5-2 hours. […] To obtain the LD50 values for each compound, the concentration at which the absorbance is haft of that for the untreated cells was determined.

HIV-2 protease = molecular target: T2, HIV-2 protease (Human immunodeficiency virus type 2 subtype A, UniProt P04584); assay: biochemical
T2 construct: the coding region of the 99-amino acid protease; made in house; host or cells: Saccharomyces cerevisiae strain AB110, plasmid pHIV2PR115
Description: The decapeptide was synthesized by conventional solid-state methods. Reactions were carried out and fractionated by HPLC. Conversion of the decapeptide to the two pentapeptides was quantitated by integration of the peak areas and comparison to product standard curves.
Enzymatic Inhibition. […] Each data point was done in triplicate and initial enzyme rates were fit to the Michaelis-Menten equation using a nonlinear regression program ("Enzfitter" from Biosoft).

HIV-1 protease [5] = molecular target: T1, HIV-1 protease; assay: biochemical
HIV-2 PR = molecular target: T3, HIV-2 PR (Human immunodeficiency virus type 2 subtype A, UniProt P04584); assay: biochemical; type: biochemical; conditions: for KI (inactivation): read-out: kinact (μM) HIV-2
T3 construct: HIV-2 PR (at a final concentration of 30 μg/mL); made in house

HIV-1 PR Q7K = HIV-1 PR Q7K (Human immunodeficiency virus type 1 group M subtype B, UniProt P03369, Q497K); type: biochemical; conditions: read-out: kinact (μM) HIV-1; inhibitor concentration resulting in half-maximal inactivation; pH 8.0, 25° C.
HIV-1 PR [6] = molecular target: T4, HIV-1 PR (Human immunodeficiency virus type 1 group M subtype B, UniProt P03369); assay: biochemical; type: binding; conditions: preincubation 10 μM one hour, then radio-labelled UCSF84 200 μM
HIV-1 PR C95M = HIV-1 PR C95M (Human immunodeficiency virus type 1 group M subtype B, UniProt P03369, C585M); assay: Protection experiment, incorporation of radio-labelled UCSF84; type: binding
HIV-1 PR [7] = molecular target: T4, HIV-1 PR; conditions: pH 8
HIV protease = HIV protease (Human immunodeficiency virus type 1 group M subtype B, UniProt P04585); conditions: cited from earlier work
[8] = Human immunodeficiency virus 1, COS-7, 4 h, read-out: % p24 Relative to Untreated
[9] = HIV-1 Protease IC50 (μM) 1M NaCl
[10] = HIV-1 Protease IC50 (μM) 1M NaCl, 1M NaCl
[11] = inhibitor concentration resulting in half-maximal inactivation, pH 8.0, 25° C.
[12] = pH 8, maximum inactivation rate, read-out: Vinact (min^-1 × 10^3) HIV-2 (converted)
[13] = Human immunodeficiency virus 1, COS-7, 4 h, read-out: Reduction of p24 IC50 (μM)

T2 sequence (P04584 514-612 limits assumed): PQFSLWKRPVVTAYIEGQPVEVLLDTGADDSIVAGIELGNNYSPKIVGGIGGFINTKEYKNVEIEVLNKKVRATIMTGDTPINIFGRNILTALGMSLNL
T3 sequence (P04584 514-612 limits assumed): as above

| Compound | CC50 at 4 h (in vitro [2]) [µM] | CC50 at 6 h (in vitro [4]) [µM] | IC50 (HIV-2 protease; 1M NaCl) [µM] | IC50 (HIV-1 protease [5]; [9]) [µM] | solubility (physchem) [µM] | solubility (Solubility) [µM] | IC50 (HIV-1 protease [5]; [10]) [µM] | CC50 at 24 h (in vitro [2]) [µM] | KI (inactivation) (HIV-1 PR Q7K) [µM] | further results |
| --- | --- | --- | --- | --- | --- | --- | --- | --- | --- | --- |
| C/C=C/C/C=C/CCC(=O)[C@H]1O[C@H]1C(N)=O [cerulenin, reference compound] | 900 | – | – | – | – | – | – | – | – | cytotoxicity at 4 h, 100 µM [1]: 0%; inhibition at 100 µM (HIV; Human immunodeficiency virus 1, HeLaT4, 100 μM, 4-hour treatment, read-out: Hela/T4 Infection % Colony Reduction): 77%; inhibition of protein processing (35-kDa and 38-kDa intermediates) (HIV-1 protease [3]; 500 μM, 15 minutes (FIG. 11b)): no detectable inhibition; inhibition of protein processing (intermediate bands) (HIV-1 protease [3]; 500 μM, 120 minutes (FIG. 11c)): protein processing inhibition; activity at 100 µM (p24; [8]): 36% |
| C=C(CCC[N+]1([O-])CCC(O)(c2ccc(Cl)cc2)CC1)c1ccc(F)cc1 (centres unmarked) [UCSF42] | 300 | 160 | 67 | 30 | 500 (≈ 195 µg/mL) | – | – | – | – | cytotoxicity at 4 h, 75 µM (in vitro [2]): 0%; inhibition at 75 µM (HIV; Human immunodeficiency virus 1, HeLaT4, 75 μM, 4-hour treatment, read-out: Hela/T4 Infection % Colony Reduction): 92%; colony reduction (summary in words) (HIV): significant colony reduction; activity at 75 µM (p24; [8]): 45%; HIV-1 Protease Therapeutic Index (LD50 /IC50) (HIV-1 protease [5]): 5.3; inhibition of HIV-1 protease compared with other compounds (HIV-1 protease [5]): better inhibitor than haloperidol but not as potent an inhibitor as UCSF8 |
| OC(CCCC1(O)CCN(Cc2ccccc2)CC1)c1ccccc1 (centres unmarked) [UCSF77] | – | 500 | 500 | – | – | > 500 | 2500 | – | – | – |
| O=C(/C=C/C[N+]1([O-])CCC(O)(c2ccc(Cl)cc2)CC1)c1ccc(F)cc1 (centres unmarked) [UCSF115] | 250 | 250 | – | 30 | 250 (≈ 97.5 µg/mL) | – | – | 200 | 144 ± 14.8 | KI (inactivation) (HIV-2 PR; [11]): 116 ± 4.7 µM; kinact (HIV-2 PR; [12]): 0.0052 min⁻¹; IC50 (p24; [13]): 75 µM |
| C=CCCCC1(C(=O)c2ccc(N3CCC(O)(c4ccc(Cl)cc4)CC3)cc2)CC1 [UCSF82] | – | > 250 | 800 | – | – | < 100 | 100 | – | – | – |
| O=C(C#CCN1CCC(O)(c2ccc(Cl)cc2)CC1)c1ccccc1 [UCSF86, 4-(4'-(4"-chlorophenyl)-4'-hydroxypiperidinyl)-1-phenylbut-2-yn-1-one] | 15 | 15 to 20 | – | 20 | > 60 | – | – | < 10 | 62.4 ± 3.1 | KI (inactivation) (HIV-2 PR; [11]): 131 ± 4.4 µM; kinact (HIV-2 PR; [12]): 0.0076 min⁻¹ |
| O=C(c1ccc(N2CCC(O)(c3ccc(Cl)cc3)CC2)cc1)C1CC1 [UCSF81] | – | > 250 | 1000 | – | – | > 250 | 200 | – | – | HIV-1 Protease Therapeutic Index (LD50 /IC50) (HIV-1 protease [5]; LD50/IC50): > 1.25 |
| Val-Ser-Asn-Ler-.psi.[CH(OH)CH2 ]-Val-Ile-Val (VSNLVIV; numbers in words are those of the source; also: Leu-Val peptide bond replaced by hydroxyethylene isostere ψ[CH(OH)CH2]) [Compound U-85548] | – | – | – | – | – | – | – | – | – | blocking of radioactivity incorporation to HIV-1 PR (HIV-1 PR [6]): approximately 65%; incorporation after preincubation of the enzyme (HIV-1 PR C95M; preincubation 10 μM, then radio-labelled UCSF84): sharply reduced |
| OC1(c2ccc(Cl)cc2)CCN(CC#CC2(c3ccccc3)CO2)CC1 (centres unmarked) [UCSF84] | 120 | 100 to 165 | – | 150 | > 250 | – | – | 50 | 521 ± 56.6 | reversibility of inhibition after dilution and buffer exchange (HIV-1 PR [7]): irreversible modification of the enzyme; incorporation of radioactivity relative to HIV-1 PR (HIV-1 PR C95M; 200 μM, one hour, 25° C.): approximately 50%; KI (inactivation) (HIV-2 PR; [11]): 283 ± 9.3 µM; kinact (HIV-2 PR; [12]): 0.0146 min⁻¹; IC50 (p24; read-out: Reduction of p24 IC50, 4 hours incubation, ELISA): 50 µM |
| OC(CCCN1CCC(O)(c2ccc(Cl)cc2)CC1)c1ccc(F)cc1 (centres unmarked) [UCSF2] | – | – | – | 200 | > 250 | – | – | – | – | IC50 (HIV-2 protease): 700 µM; inhibition of protein processing (intermediate bands) (HIV-1 protease [3]): An increase in the band representing an intermediate in the vicinity of the 29-kDa marker; HIV-1 Protease Therapeutic Index (LD50 /IC50) (HIV-1 protease [5]): 0.5 |
| OC1(CCCCc2ccccc2)CCC(O)(c2ccccc2)CC1 (centres unmarked) [UCSF29, 4-(4'-phenylbutyl)-1-phenyl-1,4-cyclohexanediol] | 180 | 160 | – | – | – | > 250 | 128 | – | – | cytotoxicity at 4 h, 250 µM (in vitro [2]): 80%; inhibition at 250 µM (HIV; Human immunodeficiency virus 1, HeLaT4, 250 μM, 4-hour treatment, read-out: Hela/T4 Infection % Colony Reduction): 100%; colony reduction (summary in words) (HIV): significant colony reduction; activity at 250 µM (p24; [8]): 35%; IC50 (HIV-1 protease [5]; 0.2M NaCl, read-out: IC50): 1400 µM; IC50 (HIV-1 protease [5]; 0.5M NaCl, read-out: IC50): 625 µM; IC50 (HIV-1 protease [5]; 1.0M NaCl, read-out: IC50): 128 µM; inhibition of HIV-1 protease compared with other compounds (HIV-1 protease [5]; FIGS. 5-8, three salt concentrations): not unlike that for haloperidol; HIV-1 Protease Therapeutic Index (LD50 /IC50) (HIV-1 protease [5]; LD50/IC50): 1.2 |
| O=C(/C=C/CN1CCC(O)(c2ccc(Cl)cc2)CC1)c1ccc(F)cc1 [UCSF191] | – | 22 | – | 80 | > 150 | – | – | – | 57.2 ± 7.1 | kinact (HIV-2 PR; pH 8, read-out: Vinact (min^-1 × 10^3) HIV-2): 0.0121 min⁻¹; KI (inactivation) (HIV-2 PR; hiv-2 pr, pH 8): 156 ± 2.3 µM |
| O=C(C=C(CN1CCC(O)(c2ccc(Cl)cc2)CC1)SCCO)c1ccccc1 [UCSF178, 4-(4'-(4"-chlorophenyl)-4'-hydroxypiperidinyl)-3-(2'-hydroxyethylthio)-1-phenyl-2-buten-1-one] | > 250 | > 250 | – | 140 | 150 (≈ 64.8 µg/mL) | – | – | 75 | 232 ± 10.8 | KI (inactivation) (HIV-2 PR; [11]): 120 ± 9.9 µM; kinact (HIV-2 PR; [12]): 0.0046 min⁻¹ |
| OC1(c2ccc(Cl)cc2)CCN(CCCC2(c3ccc(F)cc3)SCCS2)CC1 [UCSF8, (1,2-ethanethioacetal)-4-(4-(p-chlorophenyl)-4-hydroxypiperidinyl]-4'-fluorobutyrophenone] | 45 | 60 | 100 | 15 | > 250 | – | – | – | – | cytotoxicity at 4 h, 20 µM (in vitro [2]): 55%; inhibition at 20 µM (HIV; Human immunodeficiency virus 1, HeLaT4, 20 μM, 4-hour treatment, read-out: Hela/T4 Infection % Colony Reduction): 85%; colony reduction (summary in words) (HIV): significant colony reduction; activity at 20 µM (p24; [8]): 62%; HIV-1 Protease Therapeutic Index (LD50 /IC50) (HIV-1 protease [5]): 4; inhibition of HIV-1 protease compared with other compounds (HIV-1 protease [5]): 50% inhibition is achieved at a much lower inhibitor concentration relative to haloperidol; IC50 (HIV-1 protease [5]; IC50): 73 µM and 32 µM and 15 µM |
| OC1(C#CC2(c3ccccc3)CO2)CCN(Cc2ccccc2)CC1 (centres unmarked) [UCSF70, N-benzyl-4-hydroxy-4-(3,4-epoxy-3-phenyl-1-butyny)piperidine] | 70 | 120 | – | – | – | > 500 | 750 | 35 | 407 ± 61.6 | IC50 (p24; [13]): 25 µM |
| O=C(C#CCN1CCC(O)(c2ccc(Cl)cc2)CC1)c1ccc(-c2ccccc2)cc1 [UCSF231, 4-(4'-(4"-chlorophenyl)-4'-hydroxypiperidinyl)-1-p-biphenylbut-2-yn-1-one] | < 5 | 10 | – | 100 | – | – | – | < 5 | 385 ± 58 | HIV-1 Protease Therapeutic Index (LD50 /IC50) (HIV-1 protease [5]): < 0.1 |
| OC1(C2(c3ccc(Cl)cc3)SCCCS2)CCN(CCCC2(c3ccc(F)cc3)SCCS2)CC1 [UCSF75] | – | 200 | 13 | – | – | < 50 | 50 | – | – | – |
| CC(C)CC(=O)N[C@H](C(=O)N[C@H](C(=O)N[C@@H](CC(C)C)[C@@H](O)CC(=O)N[C@@H](C)C(=O)N[C@@H](CC(C)C)[C@@H](O)CC(=O)O)C(C)C)C(C)C [pepstatin A] (Isovaleryl-VV[Sta]A[Sta]-OH) | – | – | – | – | – | – | – | – | – | inhibition of protein processing by HIV protease (HIV protease): partially inhibit protein processing |
